ChEMBL document CHEMBL5143596, “The Design and Optimization of Monomeric Multitarget Peptides for the Treatment of Multifactorial Diseases” (J Med Chem, 2022)
pKi: −log10 of the molar value.

Key:
[1] = Metabolic stability in rat plasma assessed as half life; type: ADME, cell-free
Mu-type opioid receptor = Mu-type opioid receptor (Homo sapiens, UniProt P35372); experiment: Binding affinity at MOR (unknown origin) assessed as inhibition constant
Mu-type opioid receptor, sequence (P35372 whole entry): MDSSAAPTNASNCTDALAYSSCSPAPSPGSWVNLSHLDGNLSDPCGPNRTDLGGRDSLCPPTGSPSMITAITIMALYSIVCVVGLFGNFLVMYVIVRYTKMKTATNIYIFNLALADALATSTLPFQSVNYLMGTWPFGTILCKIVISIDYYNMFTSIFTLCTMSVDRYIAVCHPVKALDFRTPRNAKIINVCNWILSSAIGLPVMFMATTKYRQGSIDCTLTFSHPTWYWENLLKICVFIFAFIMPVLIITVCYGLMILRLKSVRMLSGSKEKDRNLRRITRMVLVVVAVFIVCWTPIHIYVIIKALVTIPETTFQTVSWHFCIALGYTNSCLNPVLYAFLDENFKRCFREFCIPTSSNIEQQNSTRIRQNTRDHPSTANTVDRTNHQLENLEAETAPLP

Cc1cc(O)cc(C)c1C[C@H](N)C(=O)N[C@H](C)C(=O)NCC(=O)N(C)[C@@H](Cc1ccccc1)C(=O)N1CCC[C@H]1C(=O)N[C@@H](CC(C)C)C(=O)N[C@@H](Cc1c[nH]c2ccccc12)C(=O)NCc1cc(C(F)(F)F)cc(C(F)(F)F)c1
half-life [1]: > 24 h | pKi (Mu-type opioid receptor): 9.00
